In patent US10071967B2, “N-cycloalkyl-N-{[2-(1-substitutedcycloalkyl)phenyl]methylene}-(thio)carboxamide derivatives” (BAYER CROPSCIENCE AKTIENGESELLSCHAFT, priority 2013, dated 2018):

Assays:
Puccinia recondita = assay: In vivo preventive test on Puccinia recondita (brown rust on wheat); conditions: for Efficacy: Table A1, dose 100 ppm, examples from WO-2012/052490 formulated in DMF with 2% of alkylarylpolyglycolether; for protection: dose of 100 ppm of active ingredient, comparison with WO-2012/052490
Experimental: Example A: In Vivo Preventive Test on Puccinia recondita (Brown Rust on Wheat) […]
Emulsifier: 1 μL of Tween® 80 per mg of active ingredient
(§1) The active ingredients are made soluble and homogenized in a mixture of Dimethyl sulfoxide/Acetone/Tween® 80 and then diluted in water to the desired concentration.
The young plants of wheat are treated by spraying the active ingredient prepared as described above. Control plants are treated only with an aqueous solution of Acetone/Dimethyl sulfoxide/Tween® 80. After 24 hours, the plants are contaminated by spraying the leaves with an aqueous suspension of Puccinia recondita spores. The contaminated wheat plants are incubated for 24 hours at 20° C. and at 100% relative humidity and then for 10 days at 20° C. and at 70-80% relative humidity.
(§2) The test is evaluated 11 days after the inoculation. 0% means an efficacy which corresponds to that of the control plants while an efficacy of 100% means that no disease is observed.

Uromyces appendiculatus = assay: In vivo preventive test on Uromyces appendiculatus (bean rust); conditions: for Efficacy: Table B1, dose 10 ppm
Experimental: Example B: In Vivo Preventive Test on Uromyces appendiculatus (Bean Rust)
Solvent: 5% by volume of Dimethyl sulfoxide • 10% by volume of Acetone
Emulsifier: […] of Tween® 80 per mg of active ingredient
as §1
The young plants of bean are treated by spraying the active ingredient prepared as described above.
Control plants are treated only with an aqueous solution of Acetone/Dimethyl sulfoxide/Tween® 80.
After 24 hours, the plants are contaminated by spraying the leaves with an aqueous suspension of Uromyces appendiculatus spores. The contaminated bean plants are incubated for 24 hours at 20° C. and at 100% relative humidity and then for 10 days at 20° C. and at 70-80% relative humidity.
as §2

[1] = log P by HPLC on a reversed-phase column (C 18), EEC Directive 79/831 Annex V.A8; assay type: physicochemical; conditions: HPLC, reversed-phase column (C 18), 40° C.; 0.1% aqueous formic acid and acetonitrile, linear gradient 10% to 90% acetonitrile
In short: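 Column at 40° C; mobile phases 0.1% aqueous formic acid and acetonitrile, linear gradient 10% to 90% acetonitrile. Calibrated with unbranched alkan-2-ones (3 to 16 carbons) of known log P; values from retention times by linear interpolation between two successive alkanones.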

logP [1] | SMILES | Efficacy (Puccinia recondita) [%] | protection (Puccinia recondita) | Efficacy (Uromyces appendiculatus) [%] | protection (Uromyces appendiculatus; dose of ppm of active ingredient (number not given), comparison with WO-2007/087906, text)
– | Cn1nc(C(F)F)c(C(=O)NCc2ccccc2C2CC2)c1Cl [66 from WO-2012/052490, 5-chloro-N-(2-cyclo-propylbenzyl)-3-(difluoromethyl)-1-methyl-1H-pyrazole-4-carboxamide] | 0 | no protection | – | –
– | CCC1(c2ccccc2CN(C(=O)c2cn(C)nc2C(F)F)C2CC2)CC1 [I.067] | 98 | at least 98% | – | –
– | Cn1cc(C(=O)N(Cc2cc(Cl)ccc2C2(C)CC2)C2CC2)c(C(F)F)n1 [I.029, N-[5-chloro-2-(1-methylcyclopropyl)benzyl]-N-cyclopropyl-3-(difluoromethyl)-1-methyl-1H-pyrazole-4-carboxamide] | – | – | 98 | –
3.74 | Cc1ccc(C2(C)CC2)c(CN(C(=O)c2cn(C)nc2C(F)F)C2CC2)c1 [I.033] | – | – | 100 | –
– | Cc1nn(C)c(F)c1C(=O)N(Cc1ccccc1C1CCCCC1)C1CC1 [399 from WO-2007/087906, N-(2-cyclohexylbenzyl)-N-cyclopropyl-5-fluoro-1,3-dimethyl-1H-pyrazole-4-carboxamide, reference compound] | – | – | 0 | no protection
– | Cn1nc(C(F)F)c(C(=O)NCc2ccccc2C2CC2)c1F [65 from WO-2012/052490, N-(2-cyclopropylbenzyl)-3-(difluoromethyl)-5-fluoro-1-methyl-1H-pyrazole-4-carboxamide] | 0 | no protection | – | –
